Counter-ions that a name gives are not always drawn.
System: not given
Assay: not given
Details: not given

Row | SMILES | melting point
1 | COc1ccccc1N1CCN([C@H]2CC[C@@H](c3c[nH]c4ncccc43)CC2)CC1 (as salt: HCl) [Example 21, 3-{(1,4-cis)-4-[4-(2-Methoxy-phenyl)-piperazin-1-yl]-cyclohexyl}-1H-pyrrolo[2,3-b]pyridine] | 259 to 261 °C
2 | COc1ccccc1C1CCN([C@H]2CC[C@@H](c3c[nH]c4ccc(F)cc43)CC2)CC1 (as salt: HCl) [Example 19a, 5-Fluoro-3-{(1,4-cis)-4-[4-(2-methoxy-phenyl)-piperidin-1-yl]-cyclohexyl}-1H-indole] | 245 to 250 °C
3 | COc1ccccc1C1CCN([C@H]2CC[C@H](c3c[nH]c4ccc(F)cc43)CC2)CC1 (as salt: HCl) [Example 19b, 5-Fluoro-3-{(1,4-trans)-4-[4-(2-methoxy-phenyl)-piperidin-1-yl]-cyclohexyl}-1H-indole] | 297 to 299 °C
4 | COc1cc(N2CCN([C@H]3CC[C@H](c4cn(C)c5ccc(C#N)cc54)CC3)CC2)c2nccnc2c1 [Example 65b, (trans)-3-{4-[4-(7-Methoxyquinoxalin-5-yl)piperazin-1-yl]cyclohexyl}-1-methyl-1H-indole-5-carbonitrile] | 230 to 233 °C
5 | COc1cc(N2CCN([C@H]3CC[C@@H](c4cn(C)c5ccc(C#N)cc54)CC3)CC2)c2ncc(C)cc2c1 [Example 51b, (cis)-3-{4-[4-(6-Methoxy-3-methylquinolin-8-yl)piperazin-1-yl]cyclohexyl}-1-methyl-1H-indole-5-carbonitrile] | 190 to 191.5 °C
6 | N#Cc1ccc2[nH]cc([C@H]3CC[C@@H](N4CCN(c5cccc6[nH]ccc56)CC4)CC3)c2c1 (as salt: HCl) [Example 7a, 3-{4-[(1,4-cis)-4-(1H-Indol-4-yl)-piperazinyl-1-yl]cyclohexyl}-1H-indole-5-carbonitrile] | 216 to 218 °C
7 | N#Cc1ccc2[nH]cc([C@H]3CC[C@@H](N4CCN(c5cc(F)cc6c5OCC6)CC4)CC3)c2c1 (as salt: HCl) (hydrate or solvate) [Example 33a, 3-{(1,4-cis)-4-[4-(5-Fluoro-2,3-dihydro-benzofuran-7-yl)-piperazin-1-yl]-cyclohexyl}-1H-indole-5-carbonitrile] | 298 to 301 °C
8 | Cn1cc([C@H]2CC[C@@H](N3CCN(c4cccc5cccnc45)CC3)CC2)c2cc(C#N)ccc21 (as salt: HCl) [Example 30, 1-Methyl-3-[(1,4-cis)-4-(4-quinolin-8-yl-piperazin-1-yl)-cyclohexyl]-1H-indole-5-carbonitrile] | 288 to 289 °C
9 | COc1ccc2[nH]cc([C@H]3CC[C@@H](N4CCN(c5ccccc5OC)CC4)CC3)c2c1 (as salt: HCl) [Example 20a, 5-Methoxy-3-{(1,4-cis)-4-[4-(2-methoxy-phenyl)-piperazin-1-yl]-cyclohexyl}-1H-indole] | 198 to 199 °C
10 | CCn1cc([C@H]2CC[C@@H](N3CCN(c4cccc5[nH]ccc45)CC3)CC2)c2cc(C#N)ccc21 (as salt: HCl) (hydrate or solvate) [Example 13a, 1-Ethyl-3-{(1,4-cis)-4-[4-(1H-indol-4-yl)-piperazin-1-yl]-cyclohexyl}-1H-indole-5-carbonitrile] | 245 °C
11 | COc1cc2cccnc2c(N2CCN([C@H]3CC[C@@H](c4cn(C)c5ccc(C#N)cc54)CC3)CC2)n1 (as salt: salt) [Example 66b, (cis)-3-{4-[4-(6-Methoxy[1,7]naphthyridin-8-yl)piperazin-1-yl]cyclohexyl}-1-methyl-1H-indole-5-carbonitrile] | 230 to 233 °C
12 | COc1cc(N2CCN([C@H]3CC[C@H](c4c[nH]c5ccc(C#N)cc54)CC3)CC2)c2cc[nH]c2c1 (as salt: HCl) [Example 68b, 3-[trans-4-[4-(6-Methoxy-1H-indole-4-yl)-1-piperazinyl]cyclohexyl]1H-indole-5-carbonitrile] | > 210 °C
13 | CN(C)C(=O)c1cc(N2CCN([C@H]3CC[C@H](c4cn(C)c5ccc(C#N)cc54)CC3)CC2)c2ncccc2c1 [Example 77b, 8-[4-[(trans)-4-(5-Cyano-1-methyl-1H-indol-3-yl)cyclohexyl]-1-piperazinyl]-N,N-dimethyl-6-quinolincarboxamide] | 160 to 163 °C
14 | Brc1ccc2[nH]cc([C@H]3CC[C@@H](N4CCN(c5cccc6[nH]ccc56)CC4)CC3)c2c1 (as salt: HCl) [Example 5a, 5-Bromo-3-[cis-4-[4-(1H-indol-4-yl)-1-piperazinyl]cyclohexyl]-1H-indole] | 276 °C

Target: T1, human 5-HT1A receptor subtype (Homo sapiens, UniProt P08908)
T1 construct: expressed in transfected cells
T1 sequence (P08908 1-422): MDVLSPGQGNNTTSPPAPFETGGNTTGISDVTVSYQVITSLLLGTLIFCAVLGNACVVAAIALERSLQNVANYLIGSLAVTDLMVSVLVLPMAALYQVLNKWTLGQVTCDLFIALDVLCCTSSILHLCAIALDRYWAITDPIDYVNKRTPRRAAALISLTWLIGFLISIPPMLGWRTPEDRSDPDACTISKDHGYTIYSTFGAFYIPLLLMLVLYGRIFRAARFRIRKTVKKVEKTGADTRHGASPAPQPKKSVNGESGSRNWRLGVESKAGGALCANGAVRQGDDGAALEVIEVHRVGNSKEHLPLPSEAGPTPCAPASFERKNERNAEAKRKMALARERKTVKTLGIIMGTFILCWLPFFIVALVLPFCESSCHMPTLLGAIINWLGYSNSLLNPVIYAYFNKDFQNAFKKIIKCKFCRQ
Assay: 5-HT1A receptor binding, [3H]8-OH-DPAT, CHO cell membranes
Details: [3H]8-OH-DPAT 1.5 nM
Procedure: The PCR cloning of the human 5-HT1A receptor subtype from a human genomic library has been described previously Chanda et al., Mol. Pharmacol., 43:516 (1993). A stable Chinese hamster ovary cell line expressing the human 5-HT1A receptor subtype (5-HT1A.CH2O cells) was employed throughout this study. Cells were maintained in DMEM supplemented with 10% fetal calf serum, non-essential amino acids and penicillin/streptomycin.
Cells were grown to 95-100% confluency as a monolayer before membranes were harvested for binding studies. Cells were gently scraped from the culture plates, transferred to centrifuge tubes, and washed twice by centrifugation (2000 rpm for 10 min., 4° C.) in buffer (50 mM Tris; pH 7.5). The resulting pellets were aliquoted and placed at −80° C. On the day of assay, the cells were thawed on ice, and resuspended in buffer. Studies were conducted using [^3H]8-OH-DPAT as the radioligand. The binding assay was performed in 96 well microtiter plates in a final total volume of 250 μL of buffer. Competition experiments were performed by using 7 concentrations of unlabelled drug and a final ligand concentration of 1.5 nM. Non-specific binding was determined in the presence of 10 μM 5HT. Saturation analysis was conducted by using [^3H]8-OH-DPAT at concentaritions ranging from 0.3-30 nm Following a 30 minute incubation at room temperature, the reaction was terminated by the addition of ice cold buffer and rapid filtration using a M-96 Brandel Cell Harvester (Gaithersburg, Md.) through a GF/B filter presoaked for 30 minutes in 0.5% polyethylenenimine.

Row | SMILES | Ki
15 | Fc1cc2c(c(N3CCN([C@H]4CC[C@H](c5c[nH]c6ccc(F)cc65)CC4)CC3)c1)OCC2 [Example 32b, 5-Fluoro-3-{(1,4-trans)-4-[4-(5-fluoro-2,3-dihydro-benzofuran-7-yl)-piperazin-1-yl]-cyclohexyl}-1H-indole] | 49.1 nM
16 | Fc1cccc2[nH]cc([C@H]3CC[C@@H](N4CCN(c5cccc6c5OCCO6)CC4)CC3)c12 [Example 23a, 3-{(1,4-cis)-4-[4-(2,3-Dihydro-benzo[1,4]dioxin-5-yl)-piperazin-1-yl]-cyclohexyl}-4-fluoro-1H-indole] | 103 nM
17 | Fc1ccc2[nH]cc([C@H]3CC[C@H](N4CCN(c5cccc6cccnc56)CC4)CC3)c2c1 [Example 27b, 8-{4-[(1,4-trans)-4-(5-Fluoro-1H-indol-3-yl)-cyclohexyl]-piperazin-1-yl}-quinoline] | 6.54 nM
18 | COc1ccccc1N1CCN([C@H]2CC[C@@H](c3c[nH]c4ncccc43)CC2)CC1 [Example 21, 3-{(1,4-cis)-4-[4-(2-Methoxy-phenyl)-piperazin-1-yl]-cyclohexyl}-1H-pyrrolo[2,3-b]pyridine] | 110 nM
19 | Fc1ccc2[nH]cc([C@H]3CC[C@@H](N4CCN(c5cccc6cccnc56)CC4)CC3)c2c1 [Example 27a, 8-{4-[(1,4-cis)-4-(5-Fluoro-1H-indol-3-yl)-cyclohexyl]-piperazin-1-yl}-quinoline] | 69.7 nM
20 | CCCn1cc([C@H]2CC[C@@H](N3CCN(c4cccc5[nH]ccc45)CC3)CC2)c2cc(C#N)ccc21 [Example 14a, 3-{(1,4-cis)-4-[4-(1H-Indol-4-yl)-piperazin-1-yl]-cyclohexyl}-1-propyl-1H-indole-5-carbonitrile] | 820 nM
21 | Fc1cc2c(c(N3CCN([C@H]4CC[C@H](c5c[nH]c6ccc(F)cc65)CC4)CC3)c1)OCCC2 [Example 31b, 5-Fluoro-3-{(1,4-trans)-4-[4-(6-fluoro-chroman-8-yl)-piperazin-1-yl]-cyclohexyl}-1H-indole] | 32.4 nM
22 | COc1ccc2[nH]cc([C@H]3CC[C@@H](N4CCN(c5ccccc5OC)CC4)CC3)c2c1 [Example 20a, 5-Methoxy-3-{(1,4-cis)-4-[4-(2-methoxy-phenyl)-piperazin-1-yl]-cyclohexyl}-1H-indole] | 631 nM
23 | CCn1cc([C@H]2CC[C@@H](N3CCN(c4cccc5[nH]ccc45)CC3)CC2)c2cc(C#N)ccc21 [Example 13a, 1-Ethyl-3-{(1,4-cis)-4-[4-(1H-indol-4-yl)-piperazin-1-yl]-cyclohexyl}-1H-indole-5-carbonitrile] | 563 nM
24 | Fc1cccc2[nH]cc([C@H]3CC[C@H](N4CCN(c5cccc6c5OCCO6)CC4)CC3)c12 [Example 23b, 3-{(1,4-trans)-4-[4-(2,3-Dihydro-benzo[1,4]dioxin-5-yl)-piperazin-1-yl]-cyclohexyl}-4-fluoro-1H-indole] | 14.9 nM

Same assay, conditions: concentration not given

Row | SMILES | 5-HT1A, value given as %
25 | Brc1ccc2[nH]cc([C@H]3CC[C@@H](N4CCN(c5cccc6[nH]ccc56)CC4)CC3)c2c1 [Example 5a, 5-Bromo-3-[cis-4-[4-(1H-indol-4-yl)-1-piperazinyl]cyclohexyl]-1H-indole] | 0%
26 | CCCn1cc([C@H]2CC[C@H](N3CCN(c4cccc5[nH]ccc45)CC3)CC2)c2cc(C#N)ccc21 [Example 14b, 3-{(1,4-trans)-4-[4-(1H-indol-4-yl)-piperazin-1-yl]-cyclohexyl}-1-propyl-1H-indole-5-carbonitrile] | 0%
27 | Cn1ccc2c(N3CCN([C@H]4CC[C@@H](c5cn(C)c6cc(F)ccc65)CC4)CC3)cccc21 [Example 11, 6-Fluoro-1-methyl-3-{cis-4-[4-(1-methyl-1H-indol-4-yl)-1-piperazinyl]cyclohexyl}-1H-indole] | 0%
28 | Brc1ccc2[nH]cc([C@H]3CC[C@H](N4CCN(c5cccc6[nH]ccc56)CC4)CC3)c2c1 [Example 5b, 5-Bromo-3-[trans-4-[4-(1H-indol-4-yl)-1-piperazinyl]cyclohexyl]-1H-indole] | 78.7%

— patent US6465482B2, “Arylpiperazinyl-cyclohexyl indole derivatives for the treatment of depression” (Wyeth, priority 1999, dated 2002)
